pIC50: −log10 of the molar value.
Target: Oxoeicosanoid receptor 1 (Homo sapiens, UniProt Q8TDS5)
Assay: Antagonist activity at OXE receptor in human neutrophils assessed as inhibition of calcium mobilization by fluorescence assay
Type: functional

Oxoeicosanoid receptor 1, sequence (Q8TDS5 whole entry): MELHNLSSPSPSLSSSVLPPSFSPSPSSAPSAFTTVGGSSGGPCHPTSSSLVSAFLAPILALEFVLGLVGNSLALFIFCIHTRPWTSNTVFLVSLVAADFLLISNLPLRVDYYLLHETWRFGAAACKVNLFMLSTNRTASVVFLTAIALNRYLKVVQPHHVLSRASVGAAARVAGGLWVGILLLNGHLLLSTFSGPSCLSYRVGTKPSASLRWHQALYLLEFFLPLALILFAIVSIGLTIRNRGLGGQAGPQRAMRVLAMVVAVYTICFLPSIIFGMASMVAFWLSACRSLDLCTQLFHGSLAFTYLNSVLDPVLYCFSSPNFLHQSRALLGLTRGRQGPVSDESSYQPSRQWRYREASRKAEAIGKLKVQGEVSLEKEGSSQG

SMILES	pIC50
CCCCCCc1c(C(=O)C[C@@H](C)CC(=O)O)c2cc(Cl)ccc2n1C	8.57
CCCCCCc1c(C(=O)C[C@H](C)CC(=O)O)c2cc(Cl)ccc2n1C	8.22

Source: ChEMBL document CHEMBL3352521, “Two Potent OXE-R Antagonists: Assignment of Stereochemistry” (ACS Med Chem Lett, 2014)
